Data on 3 compounds can be found in US10329304B2, “Compounds and methods for inhibition of hedgehog signaling and phosphodiesterase” (Vanderbilt University, priority 2014, dated 2019).

Data set [1] has as its system Hedgehog signaling (TM3-Gli-Luc). In words: TM3-Gli-Luc luciferase reporter assay stimulated with 20 nM SAG. In kind it is cell-based. As to conditions: for EC50: read-out: TM3-Gli-Luc EC50. The method in brief: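 TM3-Gli-Luc cells on 0.1% gelatin in DMEM/F12 with 2.5% FBS, treated 48 h with compound plus 20 nM SAG. Steady-Glo luminescence normalized to CellTiter-Glo viability, DMSO-only (no SAG) background subtracted, percent of SAG control. EC50 averaged from ≥2 independent days ±SEM.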
(A reporter such as luciferase makes a cellular process visible.)

For the next data set, the system named is TM3-Gli-Luc cells. In words: TM3-Gli-Luc cell viability (Cell Titer Glo, LD50). In kind it is cell-based. The procedure:
On the day of cell plating, 96-well plates were coated with 50 μL/well of sterile 0.1% gelatin for 5 minutes then aspirated and replaced with 50 μL/well of TM3 Culture Medium. TM3-Gli-Luc cells were seeded at a density of 5,000 cells/well in TM3 Culture Medium and incubated for 24 hours. A master mix of 20 nM SAG in TM3Luc Medium was prepared, and small molecule solutions were prepared by adding the desired amount of compound from 10 mM DMSO stock to TM3Luc Medium containing 20 nM SAG. Negative control was prepared by adding an equi-volume amount of DMSO as compared to small molecule treated conditions to TM3Luc Medium not containing SAG. Cell plating medium was aspirated and replaced with 100 μL/well of prepared small molecule-containing media, and plates were incubated for 48 hours before proceeding to luciferase activity and cell viability reading.
TM3Luc Medium from compound treated plates was aspirated and replaced with 82 μL/well of Glo Lysis Buffer (Promega, Madison, Wis., USA), and plates were shaken at 300 rpm and room temperature for 12 minutes. Lysate was split between two white 96-well plates, 45 μL/well and 25 μL/well for luciferase reading and cell viability respectively. For luciferase activity monitoring, 45 μL/well of Steady Glo (Promega, Madison, Wis., USA) was added to 45 μL/well of cell lysate, incubated at room temperature for 5 minutes, then luminescence was measured on a Turner Biosystems Modulus Microplate Reader (Sunnyvale, Calif., USA) with an integration time of 0.5 seconds. For cell viability measurement, 25 μL/well of Cell Titer Glo (Promega, Madison, Wis., USA) (prepared by 1:10 dilution with Glo Lysis Buffer) was added to 25 μL/well of cell lysate, incubated at room temperature for 5 minutes, then luminescence was measured as above.
All raw data was divided by the average of positive control cell titer data to arrive at percent cells remaining compared to positive control. […] At least two independent assays tested on separate days were averaged to provide LD50±standard error of the mean.
(In general: Cellular ATP, detected with luciferase, serves as a proxy for viable cell number.)

In a further data set the test system is Gli1 transcription. Description: Sufu−/− mouse embryonic fibroblasts qRT-PCR. In kind it is cell-based. The text has this:
(§1) In light of EGM1's ability to halt Hh transcriptional activity at a node downstream of the negative regulator Sufu, and thus also downstream of Smo, we sought to confirm mode of action retention with our most promising analogs. Therefore, we employed Sufu−/− mouse embryonic fibroblasts (MEF) that display constitutively active transcription of Hh target genes Gli1 and Ptch1 and monitored the ability of our optimized analogs to repress signaling via quantitative reverse transcription-PCR (qRT-PCR). […] We then evaluated improved analogs from multiple structural classes including those from Table 1 with cyclohexylthiophene cores as well as from Table 13 with structurally distinct core modifications.
(§2) Sufu^−/− cells were seeded into 12-well plates at a density of 100,000 cells/well in D10 FBS and incubated for 24 hours. Small molecule solutions were prepared by adding the desired amount of compound from 10 mM DMSO stock to D0.5 FBS. Negative control was prepared by adding an equi-volume amount of DMSO to D0.5 FBS as compared to small molecule treated conditions. Cell plating medium was aspirated and replaced with 1 mL of prepared small molecule-containing media, and plates were incubated for 24 hours before proceeding to RNA isolation.
(§3) Cells were washed 1× with 1× phosphate-buffered saline (PBS) then RNA was isolated using the Qiagen RNeasy Mini Kit (Qiagen, Germantown, Md., USA) according to the manufacturer's protocol, eluting RNA from the spin column with 30 μL of RNase-free water. RNA was placed on ice and immediately subjected to reverse transcription. Remaining RNA was stored at −80° C.
(§4) Reverse transcription polymerase chain reaction (RT-PCR) was performed with the Applied Biosystems High Capacity cDNA Reverse Transcription Kit (ThermoFisher Scientific, Waltham, Mass., USA) using an Eppendorf MasterCycler. Each 20 μL reaction contained 0.5 μg of total RNA, 2 μL of 10×RT Buffer, 0.8 μL of 25×dNTP Mix (100 mM), 2 μL of 10×RT Random Primers, 1 μL of MultiScribe® Reverse Transcriptase (50 U/μL), 1 μL of Recombinant RNasin® Ribonuclease Inhibitor (40 U/μL) (Promega, Madison, Wis., USA), and nuclease-free water. Reverse transcription was performed with the following program: 25° C. for 10 minutes, 37° C. for 120 minutes, and 85° C. for 5 minutes. The cDNA was subjected to quantitative real-time PCR (Q-PCR) or stored at −20° C.
(§5) Quantitative real-time PCR was performed on an Applied Biosystems 7900 HT Fast Real Time PCR System in 384-well format. Each cDNA sample was assayed in triplicate with both probe of interest and control probe. Master mixes for each probe were prepared corresponding to 10 μL of Applied Biosystems TaqMan Universal PCR Master Mix (ThermoFisher Scientific, Waltham, Mass., USA), 1 μL of primer, and nuclease-free water corresponding to a volume providing 20 μL reactions when loading an average of 50 ng of cDNA. Quantitative real-time PCR was run with the following thermal cycling protocol: 50° C. for 2 min., 95° C. for 10 min., and 40 cycles of 95° C. for 15 seconds, 60° C. for 1 min., then fluorescence reading. The following FAM probes were purchased from Life Technologies (Carlsbad, Calif., USA): mouse GAPDH, Mm99999915_g1; mouse Gli1, Mm00494646_g1; mouse Ptch1, Mm01306905_m1.
(§6) Quantitative real-time PCR data for Hh signaling inhibition was quantitated using the ΔΔCt method. Control probe values were subtracted from probe of interest values to arrive at the ΔCt value. The ΔCt value was transformed by 2-^ΔCt to arrive at the ΔΔCt value. All ΔΔCt values were divided by the average negative control ΔΔCt value to provide percent Hh signaling activity. Percent inhibition values were derived by calculating the inverse of percent activity. Data is reported as mean±standard error of the mean (SEM), representing at least two biological replicates, each quantitated in triplicate.

A further data set deals with Ptch1 transcription. Description: Sufu−/− mouse embryonic fibroblasts qRT-PCR. It is filed as cell-based.
Description: as §1, §2, §3, §4, §5, §6

Data set [2] is described as follows: Lipophilic efficiency (LipE = pEC50 − cLogP) and cLogP. The method in brief: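 pEC50 came from TM3-Gli-Luc Gli-responsive luciferase reporter cells stimulated with 20 nM SAG, with non-specific cytotoxicity monitored in parallel. LipE was calculated by subtracting cLogP from pEC50.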
Data set [3] has as its system Hedgehog signaling (Gli-Luc reporter). The following applies: read-out: reported EC50 in the Shh-LIGHT2 reporter line; cited from earlier work.
The test system is the same in data set [4]. Description: Hh Gli-Luciferase reporter assay in Shh-Light2 cells. It is filed as cell-based, mouse. The following applies: Shh-conditioned media. In outline: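 Shh-Light2 cells with stable Gli-luciferase were stimulated by Shh-conditioned medium (or 3 μM purmorphamine or 20 nM SAG), or transfected with Gli-2, PDE4D3 or DN-PDE4D3. Overnight compound incubation preceded Steady-Glo read-out, normalized to CellTiter-Glo.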

Data set [5] concerns total cellular cAMP levels. In words: cAMP assay (total cellular cAMP, EIA chemiluminescence). In kind it is cell-based. As for the experimental part: Shh-Light2 cells were seeded in a 96-well plate and incubated overnight. Varying concentrations of Rolipram or Eggmanone (0.013 uM-30 uM) or DMSO only were added to the cells in the absence of serum and incubated 30 minutes, at which time forskolin was added for a final concentration of 1 uM. After an additional 15 minutes, cells were washed with PBS and assayed for cAMP levels using EIA based chemiluminescence kit according to the manufacturer's protocol (Cell Signaling Technologies, Danvers, Mass.).

The subject of the next data set is mouse aorta. In words: Myography of cannulated mouse aorta. The text has this: For myography, to test the vascular tone for presense of downstream or off target effects, mouse aorta was mounted and cannulated on a closed system. A physiological buffer (with respect to pH, CO2, and temperature) was circulated through the vessel.
For another data set, the system named is PKA activation. In words: Immunostaining of autophosphorylated PKA catalytic subunit in NIH3T3 cells. In kind it is cell-based. As to conditions: SAG-stimulated NIH3T3 cells, Egm 5 μM, Rolipram 10 μM. The procedure: NIH3T3 cells were plated on Poly-D-Lysine-coated glass coverslips and were cultured at 37° C., 5% CO2 in DMEM medium containing 10% fetal bovine serum until reaching 75% confluency. For one set of experiments, cells were then transfected with VSV-tagged PDE4D3 plasmid (gift from Miles Houslay, University of Glasgow, Scotland, UK) using Fugene6 transfection reagent (Roche, Indianapolis, Ind.) per manufacturer's protocol. Afterward, cell medium was replaced with DMEM/0.5% FBS containing either 5 μM eggmanone or DMSO and incubated overnight at 37° C., 5% CO2. Cells were fixed in 4% PFA at room temperature for 10 minutes prior to permeabilization, blocking, and staining with primary antibodies against Arl13b (gift of Tamary Caspary, Emory University, Atlanta, Ga.) and VSV (AbCam, Cambridge, Mass.). Fluorescent immunocytochemistry was performed using species-specific, secondary antibodies (Jackson Immunoresearch, West Grove, Pa.). For additional immunocytochemistry experiment, cells were treated with 20 nM SAG in the presence or absence of 5 uM Eggmanone. After overnight incubation, cells were washed with PBS, fixed for 10 minutes in 4% PFA, permeabilized 20 minutes at −20C with cold methanol, blocked with PBS/1% BSA, and incubated with primary antibodies to phospho-PKA catalytic domain Thr197 (Cell Signaling, Danvers, Mass.) and then to Arl13b. An additional overnight blocking step using unconjugated rabbit IgG was required between primary antibody incubations since both antibodies were produced in rabbit. Fluorescent conjugated secondary antibodies were used for visualization. Data analysis was performed in part through the use of the VUMC Cell Imaging Shared Resource.
Using ImageJ software (National Institutes of Health, developed by W. Rasband), a region of interest was created using the magic wand tool on Arl13b channel and transposed to the Gli2 channel, and integrated density was measured and reported as arbitrary units (a.u.). For phospho-PKA, using ImageJ, a line selection tool was used to select a line projected through the length of the primary cilia and an equal length beyond. The intensity values were potted and the cumulative florescence (area under the curve) was calculated for three cilia, blindly, for each treatment. These values for cilia and pericilia domain were analyzed by a two tailed students t-test. For correlation analysis, correlation coefficient for intensity of gamma-tubulin and phosphor-PKA were calculated and compared among treatments with students t-test.

Another data set deals with cAMP. Description: FRET-based cAMP sensors in NIH3T3 cells. The following applies: 2 μM. In kind it is cell-based. The text has this:
To visualize changes in cAMP concentrations in individual cells and cellular regions, we utilized two distinct FRET (fluorescence resonance energy transfer)-based cAMP sensors: the Epac-FRET sensor (mTurquoiseΔ-Epac(CD, ΔDEP)-cp173 Venus-Venus)^35, which detects cytosolic cAMP concentration and the PKA-based cAMP sensor (PKAC-YFP and PKARII-CFP combination), which has been used to document changes in local cAMP levels in the centrosome and basal body.

Another data set concerns Hh signaling. Description: Hh signaling inhibition (assay not named, data not shown). In kind it is cell-based.
Where [6] appears, read: Sufu−/− MEF, qRT-PCR, compounds tested at 10 μM, normalized to DMSO, mean ± SEM.

“Also recorded” adds a separate entry of the source. Like-named read-outs stand apart in the source and are kept apart here.

As for `CN(C)c1ccccc1CN1CCCN(Cc2ccccc2N(C)C)C1c1ccncc1` [GANT-61, reference compound], the “Hh inhibitory activity / potency in words” value in data set [1] (20 nM SAG) was “slightly higher than the reported”. Further, the EC50 (commonly the concentration giving half of the maximal effect) is 9.27 ± 1.8 µM in [1] (20 nM SAG, mean ± standard error of the mean); 9.27 ± 1.8 µM in [1] (TM3-Gli-Luc reporter line stimulated with 20 nM SAG, mean ± SEM, Table 14); about 5 µM in data set [3]. In the data set on TM3-Gli-Luc cells, the “TM3-Gli-Luc LD50” value was over 50 µM. Further, in the data set with Gli1 transcription (10 μM), the “inhibition of Gli1 transcription” value is “approximately 50%”. Also, in the data set on Gli1 transcription (setting [6]), the “Sufu−/− % Inh. Gil1 mRNA” value worked out at 43.8 ± 5.2%. Further, in the data set on Ptch1 transcription (10 μM), the “inhibition of Ptch1 transcription” value was “approximately 50%”. In addition, in the data set on Ptch1 transcription (setting [6]), the “Sufu−/− % Inh. Ptch1 mRNA” value is 52.8 ± 2.7%. Moreover, the LipE is recorded as 1.34 in [2] (Calculated as pEC50 - cLogP, Molinspiration Cheminformatics) and 1.34 in data set [2] (pEC50 - cLogP, Table 14).

Regarding `COc1ccc(C2CNC(=O)C2)cc1OC1CCCC1` (centres unmarked) [rolipram, reference compound], the results for the “Sonic hedgehog (SHH)-responsive Gli-luciferase reporter activity” value in data set [4] and in [4] (listed as Rolipram) were “did not bring the reporter activity down to the baseline even at very high concentrations” and “incomplete even at high concentrations”, respectively. Besides, the results for the “Total cellular cAMP levels” value in [5] and in data set [5] (listed as Rolipram) were “substantially; also recorded: elicited robust cAMP accumulation” and “increased total cellular cAMP levels”, respectively. In addition, the “Vessel diameter after pre-constriction” value in the data set with mouse aorta is on record as “caused the vessel to dilate”. Further, the “PKA activation (phospho-PKA-C staining), spatial distribution” value was “more diffuse increase in cytoplasmic phospho-PKA levels; also recorded: more diffuse increase in phospho-PKA staining” in the data set with PKA activation and “increases PKA activation more diffusely” with PKA activation (listed as Rolipram). Further, the “Cytosolic FRET signal (Epac-FRET sensor)” value in the data set on cAMP is reported as “significantly increased the FRET signal throughout the cell”.

For the compound `O=C(Nc1c(Cl)cncc1Cl)c1ccc(OC(F)F)c(OCC2CC2)c1` [Roflumilast], in the data set on Hh signaling, the “Potency for Hh signaling inhibition” value is “micromolar potency”.
